Assay results published in ChEMBL document CHEMBL4014314, “Rational Design of Bisubstrate-Type Analogues as Inhibitors of DNA Methyltransferases in Cancer Cells” (J Med Chem, 2017).

Tests used:
[1] = target: T1, DNA (cytosine-5)-methyltransferase 3A (Homo sapiens, UniProt Q9Y6K1); assay: Inhibition of human DNMT3A catalytic domain using AdoMet assessed as reduction of methylation in 5'-biotin/3' 6-carboxyfluorescein labeled DNA duplex at CpG site at 10 uM after 1 hr by fluorescence assay relative to control
[2] = target: T2, DNA (cytosine-5)-methyltransferase 1 (Homo sapiens, UniProt P26358); assay: Inhibition of full length His-tagged human DNMT1 using SAM/[methyl-3H]SAM assessed as reduction of methylation in biotinylated hemimethylated DNA duplex at 32 uM after 1 hr by scintillation counting method relative to control
[3] = target: T1, DNA (cytosine-5)-methyltransferase 3A; assay: Inhibition of human DNMT3A catalytic domain using AdoMet assessed as reduction of methylation in 5'-biotin/3' 6-carboxyfluorescein labeled DNA duplex at CpG site at 32 uM after 1 hr by fluorescence assay relative to control
[4] = target: T2, DNA (cytosine-5)-methyltransferase 1; assay: Inhibition of full length His-tagged human DNMT1 using SAM/[methyl-3H]SAM assessed as reduction of methylation in biotinylated hemimethylated DNA duplex at 100 uM after 1 hr by scintillation counting method relative to control

T1 sequence (Q9Y6K1 whole entry, looked up, the tested form may be a part): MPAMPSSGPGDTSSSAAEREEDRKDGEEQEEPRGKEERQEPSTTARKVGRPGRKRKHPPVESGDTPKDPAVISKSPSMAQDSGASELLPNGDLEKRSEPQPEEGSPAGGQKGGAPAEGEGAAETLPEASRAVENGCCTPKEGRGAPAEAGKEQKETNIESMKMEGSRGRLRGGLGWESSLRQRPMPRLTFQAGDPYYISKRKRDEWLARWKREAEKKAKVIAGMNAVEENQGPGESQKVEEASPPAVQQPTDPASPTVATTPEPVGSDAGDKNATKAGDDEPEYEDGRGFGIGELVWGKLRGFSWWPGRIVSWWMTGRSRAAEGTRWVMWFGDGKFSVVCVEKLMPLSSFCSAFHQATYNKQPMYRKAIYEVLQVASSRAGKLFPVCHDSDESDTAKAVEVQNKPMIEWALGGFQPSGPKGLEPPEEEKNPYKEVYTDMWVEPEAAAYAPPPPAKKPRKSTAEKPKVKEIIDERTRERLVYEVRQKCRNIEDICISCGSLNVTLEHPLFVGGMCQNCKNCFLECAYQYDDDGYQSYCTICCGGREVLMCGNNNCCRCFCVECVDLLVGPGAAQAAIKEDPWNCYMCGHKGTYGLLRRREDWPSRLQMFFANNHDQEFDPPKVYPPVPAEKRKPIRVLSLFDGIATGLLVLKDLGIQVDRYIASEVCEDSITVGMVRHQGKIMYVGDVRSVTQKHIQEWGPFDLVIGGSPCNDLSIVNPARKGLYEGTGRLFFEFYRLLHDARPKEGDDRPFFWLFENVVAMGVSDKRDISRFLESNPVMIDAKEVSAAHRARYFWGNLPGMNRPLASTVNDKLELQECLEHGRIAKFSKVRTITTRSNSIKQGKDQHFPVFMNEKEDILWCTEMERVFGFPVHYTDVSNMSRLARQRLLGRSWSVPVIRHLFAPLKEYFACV
T2 sequence (P26358 whole entry, the tested form may be a part): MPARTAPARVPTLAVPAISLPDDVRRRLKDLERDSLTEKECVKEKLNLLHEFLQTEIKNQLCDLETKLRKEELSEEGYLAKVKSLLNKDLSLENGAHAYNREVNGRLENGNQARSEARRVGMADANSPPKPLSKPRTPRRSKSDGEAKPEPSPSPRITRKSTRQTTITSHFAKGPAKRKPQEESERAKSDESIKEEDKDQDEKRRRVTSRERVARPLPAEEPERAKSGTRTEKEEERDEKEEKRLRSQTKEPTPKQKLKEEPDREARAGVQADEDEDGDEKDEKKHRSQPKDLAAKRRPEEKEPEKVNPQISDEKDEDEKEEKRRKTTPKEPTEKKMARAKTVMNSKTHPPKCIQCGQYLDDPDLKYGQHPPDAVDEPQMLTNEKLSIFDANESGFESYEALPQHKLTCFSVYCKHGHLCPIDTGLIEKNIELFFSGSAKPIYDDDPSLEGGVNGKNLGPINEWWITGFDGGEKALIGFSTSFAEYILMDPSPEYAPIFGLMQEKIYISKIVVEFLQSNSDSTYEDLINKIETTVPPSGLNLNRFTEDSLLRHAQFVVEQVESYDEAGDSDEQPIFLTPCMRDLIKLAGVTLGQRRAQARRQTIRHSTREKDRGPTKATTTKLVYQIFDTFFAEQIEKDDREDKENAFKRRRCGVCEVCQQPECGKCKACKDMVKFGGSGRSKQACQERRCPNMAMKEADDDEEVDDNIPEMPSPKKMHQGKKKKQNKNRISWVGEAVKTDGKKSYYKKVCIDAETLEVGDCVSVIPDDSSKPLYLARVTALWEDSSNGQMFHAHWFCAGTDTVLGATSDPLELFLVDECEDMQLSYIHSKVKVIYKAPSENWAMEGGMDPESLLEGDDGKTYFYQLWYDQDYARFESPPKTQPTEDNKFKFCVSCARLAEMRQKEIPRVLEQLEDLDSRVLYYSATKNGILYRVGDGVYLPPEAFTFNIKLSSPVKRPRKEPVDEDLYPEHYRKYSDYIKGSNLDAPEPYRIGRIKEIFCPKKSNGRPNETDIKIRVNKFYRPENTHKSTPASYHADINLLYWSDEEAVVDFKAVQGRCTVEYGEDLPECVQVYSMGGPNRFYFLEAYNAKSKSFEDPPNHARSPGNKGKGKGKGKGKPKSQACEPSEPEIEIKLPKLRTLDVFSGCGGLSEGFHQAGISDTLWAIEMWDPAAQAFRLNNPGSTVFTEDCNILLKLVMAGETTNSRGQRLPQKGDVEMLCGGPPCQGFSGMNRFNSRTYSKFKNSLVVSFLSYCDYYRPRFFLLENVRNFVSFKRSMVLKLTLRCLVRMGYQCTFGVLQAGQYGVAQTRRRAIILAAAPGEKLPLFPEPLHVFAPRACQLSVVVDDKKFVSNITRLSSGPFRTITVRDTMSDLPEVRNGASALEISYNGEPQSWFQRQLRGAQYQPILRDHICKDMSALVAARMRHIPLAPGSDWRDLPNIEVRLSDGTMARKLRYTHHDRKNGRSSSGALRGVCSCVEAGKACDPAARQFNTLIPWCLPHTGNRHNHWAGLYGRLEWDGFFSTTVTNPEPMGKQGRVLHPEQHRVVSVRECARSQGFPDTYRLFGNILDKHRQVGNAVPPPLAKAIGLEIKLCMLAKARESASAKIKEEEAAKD

Row | Compound | inhibition [1] | inhibition [2] | inhibition [3] | inhibition [4]
1 | FC(F)(F)c1cc(NCCN2CCC(COc3ccc4c(NCCCc5ccccc5)ncnc4c3)CC2)c2ccccc2n1 | 0% | 0% | 0% | 13%
2 | c1ccc(CCCNc2ncnc3cc(OCC4CCN(CCNc5cnc6ccccc6c5)CC4)ccc23)cc1 | 38% | 0% | 45% | 12%
3 | c1ccc(CCCNc2ncnc3cc(OCC4CCN(CCNc5ccc6ncccc6c5)CC4)ccc23)cc1 | 47% | 0% | 60% | 16%
4 | Nc1ccc(CCNc2ncnc3cc(OCC4CCN(CCNc5ccnc6ccccc56)CC4)ccc23)cc1 | 68% | 59% | 96% | 97%
5 | c1ccc(CNc2ncnc3cc(OCC4CCN(CCNc5ccnc6ccccc56)CC4)ccc23)cc1 | 43% | 22% | 81% | 26%
6 | COCn1ccc(NCCN2CCC(COc3ccc4c(NCCCc5ccccc5)ncnc4c3)CC2)nc1=O | 10% | 0% | 44% | 11%
7 | c1ccc(CCCNc2ncnc3cc(OCCN4CCN(CCNc5ccnc6ccccc56)CC4)ccc23)cc1 | 37% | 0% | 67% | 83%
8 | CC(C)c1ccc(CCNc2ncnc3cc(OCC4CCN(CCNc5ccnc6ccccc56)CC4)ccc23)cc1 | 53% | 0% | 83% | 8%
9 | Clc1ccc2c(NCCN3CCC(COc4ccc5c(NCCCc6ccccc6)ncnc5c4)CC3)ccnc2c1 | 70% | 33% | 62% | 79%
10 | Oc1cc2nccc(NCCN3CCC(COc4ccc5c(NCCCc6ccccc6)ncnc5c4)CC3)c2cc1O | 66% | 36% | 93% | 81%
11 | CN(C)c1ccc(NCCN2CCC(COc3ccc4c(NCCCc5ccccc5)ncnc4c3)CC2)c2ccccc12 | 66% | 8% | 77% | 15%
12 | CCCNc1ncnc2cc(OCC3CCN(CCNc4ccnc5ccccc45)CC3)ccc12 | 28% | 0% | 69% | 95%
13 | FC(F)(F)c1ccc2c(NCCN3CCC(COc4ccc5c(NCCCc6ccccc6)ncnc5c4)CC3)ccnc2c1 | 0% | 0% | 0% | 48%
14 | c1ccc(CCCNc2ncnc3cc(OCC4CCN(CCNc5cccc6cnccc56)CC4)ccc23)cc1 | 0% | 0% | 0% | 0%
15 | Cc1cc(NCCN2CCC(COc3ccc4c(NCCCc5ccccc5)ncnc4c3)CC2)ccn1 | 26% | 13% | 58% | 55%
16 | COCn1ccc(NCCNCCCOc2ccc3c(NCCCc4ccccc4)ncnc3c2)nc1=O | 0% | 0% | 0% | 0%
17 | c1ccc(CCCNc2ncnc3cc(OCC4CCN(c5ccnc6ccccc56)CC4)ccc23)cc1 | 0% | 0% | 0% | 6%
18 | COc1ccc2c(NCCN3CCC(COc4ccc5c(NCCCc6ccccc6)ncnc5c4)CC3)ccnc2c1 | 70% | 35% | 80% | 90%
19 | c1ccc(CCCNc2ncnc3cc(OCC4CCN(CCNc5cncc6ccccc56)CC4)ccc23)cc1 | 35% | 0% | 49% | 0%
20 | Cc1cc(Nc2ccc(NC(=O)c3ccc(Nc4ccnc5ccccc45)cc3)cc2)nc(N)n1 | 70% |  | 72% | 
21 | c1ccc(CCCNc2ncnc3cc(OCC4CCN(CCNc5ccncc5)CC4)ccc23)cc1 | 47% |  | 72% | 34%
